For this experiment, the system named is MV-4-11 cells. The experiment can be described thus: Gene expression microarray analysis (Affymetrix PrimeView) and GSEA. It is filed as cell-based, human. The following applies: ProbeSet 11739263_x_at; LIST D. Set-up: RFU PODN (11730768_x_at) / Fold change /veh PODN (11730768_x_at) / RFU LINC00158 (11744669_a_at) / Fold change /veh LINC00158 (11744669_a_at) / RFU DUSP10 (11751237_a_at) / Fold change /veh DUSP10 (11751237_a_at) / RFU ID3 (11757404_x_at) / Fold change /veh ID3 (11757404_x_at) / RFU PLEKHG5 (11737974_s_at) / Fold change /veh PLEKHG5 (11737974_s_at) / RFU LRRC4B (11730491_at) / Fold change /veh LRRC4B (11730491_at) / RFU GIMAP4 (11747438_a_at) / Fold change /veh GIMAP4 (11747438_a_at) / RFU KRT8 (11758183_x_at) / Fold change /veh KRT8 (11758183_x_at) / RFU CNN1 (11734310_a_at) / Fold change /veh CNN1 (11734310_a_at) / RFU VPS37D (11726825_at) / Fold change /veh VPS37D (11726825_at) / RFU C10orf10 (11716522_x_at) / Fold change /veh C10orf10 (11716522_x_at) / RFU KIR2DL2 /// KIR2DL4 /// KIR2DL5A /// KIR2DL5B /// KIR2DS1 /// KIR2DS2 /// KIR2DS3 /// KIR2DS4 /// KIR3DL3 /// KIR3DL3 /// KIR3DS1 (11738374_at) / Fold change /veh KIR2DL2 /// KIR2DL4 /// KIR2DL5A /// KIR2DL5B /// KIR2DS1 /// KIR2DS2 /// KIR2DS3 /// KIR2DS4 /// KIR3DL3 /// KIR3DL3 /// KIR3DS1 (11738374_at) / RFU C1QL1 (11718748_at) / Fold change /veh C1QL1 (11718748_at) / RFU TMPRSS4 (11747572_a_at) / Fold change /veh TMPRSS4 (11747572_a_at) / RFU HAMP (11756126_x_at) / Fold change /veh HAMP (11756126_x_at) / RFU RNFT2 (11725882_a_at) / Fold change /veh RNFT2 (11725882_a_at) / RFU NR4A2 (11747474_a_at) / Fold change /veh NR4A2 (11747474_a_at) / RFU ABCC12 (11746883_a_at) / Fold change /veh ABCC12 (11746883_a_at) / RFU TMEM136 (11760407_x_at) / Fold change /veh TMEM136 (11760407_x_at) / RFU CLDN22 /// WWC2 (11732394_at) / Fold change /veh CLDN22 /// WWC2 (11732394_at) / RFU HLA-DPB1 (11760878_x_at) / Fold change /veh HLA-DPB1 (11760878_x_at) / RFU SPINT1 (11716480_a_at) / Fold change /veh SPINT1 (11716480_a_at) / RFU GAP43 (11754022_s_at) / Fold change /veh GAP43 (11754022_s_at) / RFU A4GNT (11735810_at) / Fold change /veh A4GNT (11735810_at) / RFU PRB3 (11715151_x_at) / Fold change /veh PRB3 (11715151_x_at) / RFU TUBB4B (11761932_at) / Fold change /veh TUBB4B (11761932_at) / RFU CAPN14 (11732068_a_at) / Fold change /veh CAPN14 (11732068_a_at) / RFU TMCC2 (11721928_a_at) / Fold change /veh TMCC2 (11721928_a_at) / RFU IRGQ (11745062_a_at) / Fold change /veh IRGQ (11745062_a_at) / RFU FAM174B (11720279_a_at) / Fold change /veh FAM174B (11720279_a_at) / RFU TMPRSS4 (11748680_a_at) / Fold change /veh TMPRSS4 (11748680_a_at) / RFU FAM212B (11763350_a_at) / Fold change /veh FAM212B (11763350_a_at) / RFU PLEKHG5 (11743358_a_at) / Fold change /veh PLEKHG5 (11743358_a_at) / RFU ZSCAN30 (11745921_a_at) / Fold change /veh ZSCAN30 (11745921_a_at) / RFU CMKLR1 (11741424_a_at) / Fold change /veh CMKLR1 (11741424_a_at) / RFU LOC101060620 /// MAPK8IP1 (11723275_at) / Fold change /veh LOC101060620 /// MAPK8IP1 (11723275_at) / RFU SPTSSB (11747773_x_at) / Fold change /veh SPTSSB (11747773_x_at) / RFU PRSS12 (11739890_at) / Fold change /veh PRSS12 (11739890_at) / RFU BIN1 (11741810_x_at) / Fold change /veh BIN1 (11741810_x_at) / RFU WNT11 (11732464_a_at) / Fold change /veh WNT11 (11732464_a_at) / RFU C10orf10 (11716521_a_at) / Fold change /veh C10orf10 (11716521_a_at) / RFU C5orf56 (11738089_at) / Fold change /veh C5orf56 (11738089_at) / RFU CYB561 (11721691_x_at) / Fold change /veh CYB561 (11721691_x_at) / RFU ANKRD19P (11752326_a_at) / Fold change /veh ANKRD19P (11752326_a_at) / RFU OR2T12 /// OR2T33 /// OR2T8 (11738714_s_at) / Fold change /veh OR2T12 /// OR2T33 /// OR2T8 (11738714_s_at) / RFU VCAN (11748164_a_at) / Fold change /veh VCAN (11748164_a_at) / RFU JSRP1 (11732532_at) / Fold change /veh JSRP1 (11732532_at) / RFU KRTAP10-11 (11738290_x_at) / Fold change /veh KRTAP10-11 (11738290_x_at) / RFU MYO3A (11730013_a_at) / Fold change /veh MYO3A (11730013_a_at) / RFU EBF3 (11725865_a_at) / Fold change /veh EBF3 (11725865_a_at) / RFU CAMK2N1 (11719241_x_at) / Fold change /veh CAMK2N1 (11719241_x_at) / RFU C5orf56 (11738088_a_at) / Fold change /veh C5orf56 (11738088_a_at) / RFU OLFML3 (11715873_a_at) / Fold change /veh OLFML3 (11715873_a_at) / RFU LOC100653217 /// NTM (11731650_a_at) / Fold change /veh LOC100653217 /// NTM (11731650_a_at) / RFU MAPK11 (11762145_a_at) / Fold change /veh MAPK11 (11762145_a_at) / RFU FIZ1 (11724087_x_at) / Fold change /veh FIZ1 (11724087_x_at) / RFU OASL (11726364_x_at) / Fold change /veh OASL (11726364_x_at) / RFU SOX15 (11748057_x_at) / Fold change /veh SOX15 (11748057_x_at) / RFU CD79A (11719716_a_at) / Fold change /veh CD79A (11719716_a_at) / RFU HIST1H1D (11736915_at) / Fold change /veh HIST1H1D (11736915_at) / RFU CASKIN2 (11723855_a_at) / Fold change /veh CASKIN2 (11723855_a_at) / RFU LOC730098 (11760151_x_at) / Fold change /veh LOC730098 (11760151_x_at) / RFU OR4N2 (11742367_at) / Fold change /veh OR4N2 (11742367_at) / RFU PRRT2 (11749266_a_at) / Fold change /veh PRRT2 (11749266_a_at) / RFU SNX32 (11753110_a_at) / Fold change /veh SNX32 (11753110_a_at) / RFU CDHR5 (11726645_a_at) / Fold change /veh CDHR5 (11726645_a_at) / RFU RCAN1 (11760418_a_at) / Fold change /veh RCAN1 (11760418_a_at) / RFU FAM167A (11723789_a_at) / Fold change /veh FAM167A (11723789_a_at) / RFU FAM26E (11764081_at) / Fold change /veh FAM26E (11764081_at) / RFU ISYNA1 (11749810_s_at) / Fold change /veh ISYNA1 (11749810_s_at) / RFU ACY1 (11761880_at) / Fold change /veh ACY1 (11761880_at) / RFU 11764098_at / Fold change /veh 11764098_at / RFU SAMD14 (11745864_x_at) / Fold change /veh SAMD14 (11745864_x_at) / RFU NPB (11741838_a_at) / Fold change /veh NPB (11741838_a_at) / RFU TMPRSS6 (11731388_a_at) / Fold change /veh TMPRSS6 (11731388_a_at) / RFU KRTAP10-2 (11738614_at) / Fold change /veh KRTAP10-2 (11738614_at) / RFU ARHGAP8 /// PRR5-ARHGAP8 (11727945_x_at) / Fold change /veh ARHGAP8 /// PRR5-ARHGAP8 (11727945_x_at) / RFU KRTAP5-7 /// NADSYN1 (11734609_at) / Fold change /veh KRTAP5-7 /// NADSYN1 (11734609_at) / RFU RASL12 (11751679_a_at) / Fold change /veh RASL12 (11751679_a_at) / RFU CDKN2B (11736163_a_at) / Fold change /veh CDKN2B (11736163_a_at) / RFU PRF1 (11729649_at) / Fold change /veh PRF1 (11729649_at) / RFU, ZNF638 /// ZNF638-IT1 / Fold change vs veh, ZNF638 /// ZNF638-IT1 / RFU, PANK3 / Fold change vs veh, PANK3 / RFU, SH3YL1 / Fold change vs veh, SH3YL1 / RFU, ZEB2 / Fold change vs veh, ZEB2 / RFU, NRIP1 / Fold change vs veh, NRIP1 / RFU, PTTG1IP / Fold change vs veh, PTTG1IP / RFU, CAPN2 / Fold change vs veh, CAPN2 / RFU, MED14 / Fold change vs veh, MED14 / RFU, SNORA58 / Fold change vs veh, SNORA58 / RFU, C1orf63 / Fold change vs veh, C1orf63 / RFU, LRRFIP1 / Fold change vs veh, LRRFIP1 / RFU, NDUFAF7 / Fold change vs veh, NDUFAF7 / RFU, SLC12A2 / Fold change vs veh, SLC12A2 / RFU, IBTK / Fold change vs veh, IBTK / RFU, ESF1 / Fold change vs veh, ESF1 / Fold change vs veh, TMEM50B / RFU, TAOK1 / Fold change vs veh, TAOK1 / RFU, ACBD3 / Fold change vs veh, ACBD3 / RFU, TMA16 / Fold change vs veh, TMA16 / RFU, RWDD3 / Fold change vs veh, RWDD3 / RFU, BCAT1 / Fold change vs veh, BCAT1 / RFU, EDEM3 / Fold change vs veh, EDEM3 / RFU, TMEM33 / Fold change vs veh, TMEM33 / RFU, WDR75 / Fold change vs veh, WDR75 / RFU, AHCTF1 / Fold change vs veh, AHCTF1 / RFU, TFRC / Fold change vs veh, TFRC / RFU, ZDHHC17 / Fold change vs veh, ZDHHC17 / RFU, NOM1 / Fold change vs veh, NOM1 / RFU, ARL8B / Fold change vs veh, ARL8B / RFU, ZBTB11 / Fold change vs veh, ZBTB11 / RFU, TAMM41 / Fold change vs veh, TAMM41 / RFU, KIAA1704 /// LOC100996395 / Fold change vs veh, KIAA1704 /// LOC100996395 / RFU, ING1 / Fold change vs veh, ING1 / RFU, TRMT61B / Fold change vs veh, TRMT61B / RFU, FUBP3 / Fold change vs veh, FUBP3 / RFU, TP53 / Fold change vs veh, TP53 / RFU, TNKS2 / Fold change vs veh, TNKS2 / RFU, ZFP14 / Fold change vs veh, ZFP14 / RFU, ACTR2 / Fold change vs veh, ACTR2 / RFU, PPP3R1 / Fold change vs veh, PPP3R1 / RFU, PIK3R1 / Fold change vs veh, PIK3R1 / RFU, HNRNPA1 / Fold change vs veh, HNRNPA1 / RFU, RNF170 / Fold change vs veh, RNF170 / RFU, ZNF28 / Fold change vs veh, ZNF28 / RFU, RNGTT / Fold change vs veh, RNGTT / RFU, OGT / Fold change vs veh, OGT / RFU, BRD1 / Fold change vs veh, BRD1 / RFU, MARS / Fold change vs veh, MARS / RFU, ZNF655 / Fold change vs veh, ZNF655 / RFU, FAHD1 / Fold change vs veh, FAHD1 / RFU, BDP1 / Fold change vs veh, BDP1 / RFU, LRRCC1 / Fold change vs veh, LRRCC1 / RFU, ARID1A / Fold change vs veh, ARID1A / RFU, ZNF146 / Fold change vs veh, ZNF146 / RFU, ZNF330 / Fold change vs veh, ZNF330 / RFU, GPN3 / Fold change vs veh, GPN3 / RFU, C9orf123 / Fold change vs veh, C9orf123 / RFU, N4BP2L2 / Fold change vs veh, N4BP2L2 / RFU, ARFIP1 / Fold change vs veh, ARFIP1 / RFU, FAM179B / Fold change vs veh, FAM179B / RFU, BCL10 / Fold change vs veh, BCL10 / RFU, UHRF1BP1L / Fold change vs veh, UHRF1BP1L / RFU, BET1 / Fold change vs veh, BET1 / RFU, CNOT2 / Fold change vs veh, CNOT2 / RFU, ZNF268 / Fold change vs veh, ZNF268 / Fold change vs veh, ZNF507 / RFU, DGCR2 / Fold change vs veh, DGCR2 / RFU, WDSUB1 / Fold change vs veh, WDSUB1 / Fold change vs veh, HSP90B1 /// MIR3652 / RFU, ADSS / Fold change vs veh, ADSS / RFU, GK / Fold change vs veh, GK / RFU, ZNF148 / Fold change vs veh, ZNF148 / RFU, TAF9 / Fold change vs veh, TAF9 / RFU, SLC1A5 / Fold change vs veh, SLC1A5 / RFU, SLMO2 / Fold change vs veh, SLMO2 / RFU, ABCC4 / Fold change vs veh, ABCC4 / RFU, LOC101060439 /// RAP1B / Fold change vs veh, LOC101060439 /// RAP1B / RFU, RFX7 / Fold change vs veh, RFX7 / RFU, GTPBP10 / Fold change vs veh, GTPBP10 / RFU, CNEP1R1 / Fold change vs veh, CNEP1R1 / RFU, BIVM-ERCC5 /// ERCC5 / Fold change vs veh, BIVM-ERCC5 /// ERCC5 / RFU, ILF3 / Fold change vs veh, ILF3 / RFU 11762660_at / Fold change /veh 11762660_at / RFU VCAN (11757783_s_at) / Fold change /veh VCAN (11757783_s_at) / RFU DDX43 (11728927_at) / Fold change /veh DDX43 (11728927_at) / RFU KRT8 (11758188_x_at) / Fold change /veh KRT8 (11758188_x_at) / RFU NKD1 (11759106_at) / Fold change /veh NKD1 (11759106_at) / RFU SRD5A1 (11742802_a_at) / Fold change /veh SRD5A1 (11742802_a_at) / RFU TPSAB1 /// TPSB2 (11721975_s_at) / Fold change /veh TPSAB1 /// TPSB2 (11721975_s_at) / RFU GSTM3 (11746129_a_at) / Fold change /veh GSTM3 (11746129_a_at) / RFU IL23R (11737362_x_at) / Fold change /veh IL23R (11737362_x_at) / RFU TMEM51 (11727254_a_at) / Fold change /veh TMEM51 (11727254_a_at) / RFU PIWIL2 (11732686_x_at) / Fold change /veh PIWIL2 (11732686_x_at) / RFU ORM1 (11744905_x_at) / Fold change /veh ORM1 (11744905_x_at) / RFU CCDC152 (11743942_at) / Fold change /veh CCDC152 (11743942_at) / RFU ECM1 (11717891_a_at) / Fold change /veh ECM1 (11717891_a_at) / RFU IL23R (11748794_a_at) / Fold change /veh IL23R (11748794_a_at) / RFU TNFAIP8L3 (11732012_x_at) / Fold change /veh TNFAIP8L3 (11732012_x_at) / RFU MBOAT4 (11741988_at) / Fold change /veh MBOAT4 (11741988_at) / RFU 11764193_at / Fold change /veh 11764193_at / RFU TMEM53 (11763286_at) / Fold change /veh TMEM53 (11763286_at) / RFU MAGEB2 (11727129_at) / Fold change /veh MAGEB2 (11727129_at) / RFU TMEM200A (11744735_a_at) / Fold change /veh TMEM200A (11744735_a_at) / RFU CCDC152 (11751479_a_at) / Fold change /veh CCDC152 (11751479_a_at) / RFU FAM211A (11726209_a_at) / Fold change /veh FAM211A (11726209_a_at) / RFU RGS16 (11746705_a_at) / Fold change /veh RGS16 (11746705_a_at) / RFU VCAN (11755009_s_at) / Fold change /veh VCAN (11755009_s_at) / RFU RHOB (11743442_s_at) / Fold change /veh RHOB (11743442_s_at) / RFU RGS16 (11720943_a_at) / Fold change /veh RGS16 (11720943_a_at) / RFU RGS16 (11720944_at) / Fold change /veh RGS16 (11720944_at) / RFU, VPS4B / Fold change vs veh, VPS4B / RFU, CREB1 / Fold change vs veh, CREB1 / RFU, DNAJC13 / Fold change vs veh, DNAJC13 / RFU, GNAQ / Fold change vs veh, GNAQ / RFU, CDK5R1 / Fold change vs veh, CDK5R1 / RFU, ZRANB3 / Fold change vs veh, ZRANB3 / RFU, CUL4A / Fold change vs veh, CUL4A / RFU, CCNY / Fold change vs veh, CCNY / RFU, UFL1 / Fold change vs veh, UFL1 / RFU, COG3 / Fold change vs veh, COG3 / RFU, DIAPH2 / Fold change vs veh, DIAPH2 / RFU, SKA2 / Fold change vs veh, SKA2 / RFU, AFF3 / Fold change vs veh, AFF3 / RFU, LMF1 / Fold change vs veh, LMF1 / RFU, IPO11 / Fold change vs veh, IPO11 / RFU, DFFB / Fold change vs veh, DFFB / RFU, FOXP1 / Fold change vs veh, FOXP1 / RFU, CARD8 / Fold change vs veh, CARD8 / RFU, STRN3 / Fold change vs veh, STRN3 / RFU, ADK / Fold change vs veh, ADK / RFU, RASSF2 / Fold change vs veh, RASSF2 / RFU, WIPF1 / Fold change vs veh, WIPF1 / RFU, LARP1B / Fold change vs veh, LARP1B / RFU, RASA1 / Fold change vs veh, RASA1 / RFU, RB1 / Fold change vs veh, RB1 / RFU, PPFIA1 / Fold change vs veh, PPFIA1 / RFU, MAT2A / Fold change vs veh, MAT2A / RFU, CCT5 / Fold change vs veh, CCT5 / RFU, WDR92 / Fold change vs veh, WDR92 / RFU, CUX1 / Fold change vs veh, CUX1 / RFU, TTC7A / Fold change vs veh, TTC7A / RFU, TMEM135 / Fold change vs veh, TMEM135 / RFU, DEPTOR / Fold change vs veh, DEPTOR / RFU, CPM / Fold change vs veh, CPM / RFU, DNAJB6 / Fold change vs veh, DNAJB6 / RFU, CACNA2D3 / Fold change vs veh, CACNA2D3 / RFU, DTX4 / Fold change vs veh, DTX4 / RFU, TFCP2 / Fold change vs veh, TFCP2 / RFU, GMCL1 /// GMCL1P1 / Fold change vs veh, GMCL1 /// GMCL1P1 / RFU, AEBP2 / Fold change vs veh, AEBP2 / RFU, SNHG1 /// SNORD22 /// SNORD25 /// SNORD26 /// SNORD27 /// SNORD28 /// SNORD29 /// SNORD31 / Fold change vs veh, SNHG1 /// SNORD22 /// SNORD25 /// SNORD26 /// SNORD27 /// SNORD28 /// SNORD29 /// SNORD31 / Fold change (Aza/veh), C12orf56 (ProbeSet 11735607_a_at) / Fold change (ACY-1035/veh), C12orf56 (ProbeSet 11735607_a_at) / Fold change (Aza/veh), FGFR1OP (ProbeSet 11751329_s_at) / Fold change (ACY-1035/veh), FGFR1OP (ProbeSet 11751329_s_at) / Fold change (Aza/veh), VPS36 (ProbeSet 11739960_a_at) / Fold change (ACY-1035/veh), VPS36 (ProbeSet 11739960_a_at) / RFU SYPL1 (11715823_x_at) / Fold change /veh SYPL1 (11715823_x_at) / RFU IGFBP7 (11715501_s_at) / Fold change /veh IGFBP7 (11715501_s_at) / RFU REEP3 (11722064_at) / Fold change /veh REEP3 (11722064_at) / RFU IGLL1 (11728026_x_at) / Fold change /veh IGLL1 (11728026_x_at): dose or concentration left out as unconfirmed.

Each structure is given as a SMILES string.

`Nc1ccc(-c2cccs2)cc1NC(=O)c1ccc2c(c1)cc(C1CC1)n2CCN1CCOCC1` [ACY-1035]: the “Fold change vs veh, VPS4B” value worked out at 0.95.

Values taken from article PMC5218480 (PLoS ONE, 2017).
